For 13 compounds, IC90 results are on record in patent US12421211B2, “Heterocyclic compounds” (Hoffmann-La Roche Inc., priority 2021, dated 2025).

Structures can show the parent of a compound that is named as a salt.

One test relates to Acinetobacter baumannii ATCC17961. As to the kind of experiment: Antimicrobial susceptibility testing: 90% growth inhibitory concentration (IC90) determination. To be noted: Acinetobacter baumannii, ATCC17961, 16 h, 90% growth inhibitory concentration, Acinetobacter baumannii ATCC17961, Iso-Sensitest broth, OD 600 nm over 16 h; read-out: ATCC 17961 IC90. Format: cell-based. An outline of the steps:
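A. baumannii ATCC17961 at ~5×10^5 CFU/ml in Iso-Sensitest broth exposed to 10-point twofold dilutions (e.g. 50–0.097 μM final), 35±2° C. OD600 read every 20 minutes over 16h; IC50 and IC90 derived from inhibition during logarithmic growth.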
The IC90 is the concentration needed for an effect of 90%. `COCCn1cc(-c2ccc(-c3cnc(C(=O)Nc4ccc(C(=O)N5CCN(C(=O)[C@@H]6C[C@H](O)C[N+]6(C)C)CC5)c(Cl)c4)n3C)c(F)c2F)c(C)n1` [Example D10, N-[3-chloro-4-[4-[(2S,4S)-4-hydroxy-1,1-dimethyl-pyrrolidin-1-ium-2-carbonyl]piperazine-1-carbonyl]phenyl]-5-[2,3-difluoro-4-[1-(2-methoxyethyl)-3-methyl-pyrazol-4-yl]phenyl]-1-methyl-imidazole-2-carboxamide; formate]: the IC90 stood at 210 nM.

`COCCn1ncc(-c2ccc(-c3cnc(C(=O)Nc4ccc(C(=O)N5CCN(C(=O)C[N+]6(C)CCCC6)CC5)c(Cl)c4)n3C)c(F)c2F)c1C` [Example C14, N-[3-chloro-4-[4-[2-(1-methylpyrrolidin-1-ium-1-yl)acetyl]piperazine-1-carbonyl]phenyl]-5-[2,3-difluoro-4-[1-(2-methoxyethyl)-5-methyl-pyrazol-4-yl]phenyl]-1-methyl-imidazole-2-carboxamide; 2,2,2-trifluoroacetate]: the IC90 stood at 82 nM.

Take `COCCn1ncc(-c2ccc(-c3cnc(C(=O)Nc4ccc(C(=O)N5CCN(C(=O)C67CC(N)(C6)C7)CC5)c(Cl)c4)n3C)c(F)c2F)c1C` [Example D30, N-[4-[4-(3-aminobicyclo[1.1.1]pentane-1-carbonyl)piperazine-1-carbonyl]-3-chloro-phenyl]-5-[2,3-difluoro-4-[1-(2-methoxyethyl)-5-methyl-pyrazol-4-yl]phenyl]-1-methyl-imidazole-2-carboxamide; 2,2,2-trifluoroacetic acid]: the 90% effect concentration (IC90) is 240 nM.

For `Cn1c(-c2ccc(-c3c[nH]nc3-c3cccc(F)c3)c(F)c2F)cnc1C(=O)Nc1ccc(C(=O)N2CCN(C(=O)C3CC[N+](C)(C)CC3)CC2)c(Cl)c1` [Example F45, N-[3-chloro-4-[4-(1,1-dimethylpiperidin-1-ium-4-carbonyl)piperazine-1-carbonyl]phenyl]-5-[2,3-difluoro-4-[3-(3-fluorophenyl)-1H-pyrazol-4-yl]phenyl]-1-methyl-imidazole-2-carboxamide; formate], the IC90 is 310 nM.

As for `Cc1nn(Cc2ccccn2)cc1-c1ccc(-c2cnc(C(=O)Nc3ccc(C(=O)N4CCN(C(=O)C5CC[N+](C)(C)CC5)CC4)c(Cl)c3)n2C)c(F)c1F` [Example F41, N-[3-chloro-4-[4-(1,1-dimethylpiperidin-1-ium-4-carbonyl)piperazine-1-carbonyl]phenyl]-5-[2,3-difluoro-4-[3-methyl-1-(2-pyridylmethyl)pyrazol-4-yl]phenyl]-1-methyl-imidazole-2-carboxamide; formate], the IC90 is 150 nM.

Take `Cn1c(-c2ccc(-c3cnn(CCN4CCOCC4)c3C(F)(F)F)c(F)c2F)cnc1C(=O)Nc1ccc(C(=O)N2CCN(C(=O)C3CC[N+](C)(C)CC3)CC2)c(Cl)c1` [Example F37, N-[3-chloro-4-[4-(1,1-dimethylpiperidin-1-ium-4-carbonyl)piperazine-1-carbonyl]phenyl]-5-[2,3-difluoro-4-[1-(2-morpholinoethyl)-5-(trifluoromethyl)pyrazol-4-yl]phenyl]-1-methyl-imidazole-2-carboxamide; formate]: the IC90 came to 690 nM.

As for `Cn1c(-c2ccc(-c3cn(CCCC(N)=O)nc3C(F)(F)F)c(F)c2F)cnc1C(=O)Nc1ccc(C(=O)N2CCN(C(=O)C3CC[N+](C)(C)CC3)CC2)c(Cl)c1` [Example F34, 5-[4-[1-(4-amino-4-oxo-butyl)-3-(trifluoro-methyl)pyrazol-4-yl]-2,3-difluoro-phenyl]-N-[3-chloro-4-[4-(1,1-dimethylpiperidin-1-ium-4-carbonyl)piperazine-1-carbonyl]phenyl]-1-methyl-imidazole-2-carboxamide; formate], the IC90 came out at 230 nM.

As for `Cn1c(-c2ccc(-c3cn(CCOC(F)F)nc3C(F)(F)F)c(F)c2F)cnc1C(=O)Nc1ccc(C(=O)N2CCN(C(=O)C3CC[N+](C)(C)CC3)CC2)c(Cl)c1` [Example F6, N-[3-chloro-4-[4-(1,1-dimethylpiperidin-1-ium-4-carbonyl)piperazine-1-carbonyl]phenyl]-5-[4-[1-[2-(difluoromethoxy)ethyl]-3-(trifluoro-methyl)pyrazol-4-yl]-2,3-difluoro-phenyl]-1-methyl-imidazole-2-carboxamide; formate], the IC90 came out at 570 nM.

For the compound `COCCn1cc(-c2ccc(-c3cnc(C(=O)Nc4ccc(C(=O)N5CCN(C(=O)C6CC[N+](C)(C)CC6)CC5)c(Cl)c4)n3C)c(F)c2F)c(CO)n1` [Example F25, N-[3-chloro-4-[4-(1,1-dimethylpiperidin-1-ium-4-carbonyl)piperazine-1-carbonyl]phenyl]-5-[2,3-difluoro-4-[3-(hydroxymethyl)-1-(2-methoxyethyl)pyrazol-4-yl]phenyl]-1-methyl-imidazole-2-carboxamide; formate], the IC90 was 1200 nM.

Regarding `COCCn1cc(-c2ccc(-c3cnc(C(=O)Nc4ccc(C(=O)N5CCN(C(=O)[C@@H]6C[C@@H](O)C[N+]6(C)C)CC5)c(Cl)c4)n3C)c(F)c2F)c(C(C)C)n1` [Example F11, N-[3-chloro-4-[4-[(2S,4R)-4-hydroxy-1,1-dimethyl-pyrrolidin-1-ium-2-carbonyl]piperazine-1-carbonyl]phenyl]-5-[2,3-difluoro-4-[3-isopropyl-1-(2-methoxyethyl)pyrazol-4-yl]phenyl]-1-methyl-imidazole-2-carboxamide; formate], the IC90 is 800 nM.

As for `COCCn1cc(-c2ccc(-c3cnc(C(=O)Nc4ccc(C(=O)N5CCN(C(=O)C[N+]6(C)CCC(N)C6)CC5)c(Cl)c4)n3C)c(F)c2F)c(C)n1` (stereo not shown) [Example C3, N-[4-[4-[2-(3-amino-1-methyl-pyrrolidin-1-ium-1-yl)acetyl]piperazine-1-carbonyl]-3-chloro-phenyl]-5-[2,3-difluoro-4-[1-(2-methoxyethyl)-3-methyl-pyrazol-4-yl]phenyl]-1-methyl-imidazole-2-carboxamide; formic acid; formate], the IC90 stood at 100 nM.

Consider `COCCCn1ncc(-c2ccc(-c3cnc(C(=O)Nc4ccc(C(=O)N5CCN(C(=O)[C@@H]6C[C@@H](O)C[N+]6(C)C)CC5)c(Cl)c4)n3C)c(F)c2F)c1C` [Example D12, N-[3-chloro-4-[4-[(2S,4R)-4-hydroxy-1,1-dimethyl-pyrrolidin-1-ium-2-carbonyl]piperazine-1-carbonyl]phenyl]-5-[2,3-difluoro-4-[1-(3-methoxypropyl)-5-methyl-pyrazol-4-yl]phenyl]-1-methyl-imidazole-2-carboxamide; formate], for which the IC90 was 200 nM.

The test is the same for the next values; noted with them: Acinetobacter baumannii, ATCC17961, 16 h, read-out: ATCC 17961 IC90.
`COCCn1ncc(-c2ccc(-c3cnc(C(=O)Nc4ccc(C(=O)N5CCN(C(=O)C6CCN(CCS(N)(=O)=O)CC6)CC5)c(Cl)c4)n3C)c(F)c2F)c1C` [Example B33, N-[3-chloro-4-[4-[1-(2-sulfamoylethyl)piperidine-4-carbonyl]piperazine-1-carbonyl]phenyl]-5-[2,3-difluoro-4-[1-(2-methoxyethyl)-5-methyl-pyrazol-4-yl]phenyl]-1-methyl-imidazole-2-carboxamide]: the IC90 came out at 820 nM.
